Data as given in US6511798B1, “Methods for the preparation of cell monolayers” (Zeneca Limited, priority 1998, dated 2003).
Read-outs that look alike come from different tables or passages of the source.

Experiments:
[1] = test system: cell monolayers on BIOCOAT "3 day" system or polycarbonate filters; conditions: cited from earlier work
in vitro = conditions: human, Caco-2, pH 7.4
Procedure: (§1) This was carried out with the hydrophilic markers, ^14C-mannitol and Lucifer Yellow.
(§2) Solutions of drug for screening are prepared with Hank's Balanced Salts solution (HBSS) buffered to pH7.4 with HEPES. Up to 1% DMSO may be added to aid solubilisation. These drug solutions are added to either the apical (1.5 ml) or the basolateral (3.0 ml) chambers of a 6 well system, and HBSS at pH7.4 is added to the opposite chamber. 0.5 ml samples are taken at regular time intervals from the receiver chamber and the volume replaced with fresh pre-warmed HBSS at pH7.4. A donor sample is taken initially and at the final time point. Samples are analysed using appropriate methods. The volumes are modified accordingly for other plate formats (e.g. 400 μL apical volume, 1 mL basolateral volume for a 24 well plate).
(§3) The results are expressed as cumulative amount or percentage transported versus time. An absorption apparent permeability coefficient, Papp, can been calculated where: [formula]
(§4) where dQ/dt is the permeability rate (over the linear portion of the curve), C0 is the initial concentration in the donor chamber and A (cm^2) is the surface area of the filter insert supporting the cell monolayer.

Caco-2 cell monolayer = assay: in vitro
Procedure: as §1, §2, §3, §4

[2] = molecular target: T1, apical di-peptide transporter (Homo sapiens, UniProt P46059); assay: Transport of 14C-Gly-sar across Caco-2 monolayers, A-B and B-A; assay type: in vitro ADME; conditions: pH 6 and 7.4
T1 construct: show functional expression of the dipeptide carrier and p-glycoprotein; endogenous in cells; host or cells: Caco-2 (ECACC 86010202)
T1 sequence (P46059 1-708): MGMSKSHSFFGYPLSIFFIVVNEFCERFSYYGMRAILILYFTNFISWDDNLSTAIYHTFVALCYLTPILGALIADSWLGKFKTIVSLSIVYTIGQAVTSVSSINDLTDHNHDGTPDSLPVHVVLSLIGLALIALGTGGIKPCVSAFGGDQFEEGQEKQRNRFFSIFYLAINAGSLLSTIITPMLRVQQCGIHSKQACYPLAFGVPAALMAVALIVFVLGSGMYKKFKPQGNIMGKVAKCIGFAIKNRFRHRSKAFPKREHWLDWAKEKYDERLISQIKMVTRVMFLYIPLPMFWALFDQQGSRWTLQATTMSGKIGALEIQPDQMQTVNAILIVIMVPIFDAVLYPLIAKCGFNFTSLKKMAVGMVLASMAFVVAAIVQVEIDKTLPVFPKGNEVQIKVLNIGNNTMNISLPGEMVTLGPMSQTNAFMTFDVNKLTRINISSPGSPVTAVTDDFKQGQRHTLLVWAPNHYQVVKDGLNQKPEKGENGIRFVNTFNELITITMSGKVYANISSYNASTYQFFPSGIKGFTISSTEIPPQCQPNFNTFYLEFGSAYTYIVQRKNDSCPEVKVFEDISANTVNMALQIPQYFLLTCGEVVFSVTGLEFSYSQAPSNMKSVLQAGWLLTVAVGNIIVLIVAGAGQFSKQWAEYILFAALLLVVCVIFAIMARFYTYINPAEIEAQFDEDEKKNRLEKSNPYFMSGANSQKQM
Procedure: Samples are analysed using appropriate methods.

P-glycoprotein = P-glycoprotein (Homo sapiens, UniProt P08183); conditions: 6 well Biocoat inserts; without verapamil
Chain of P-glycoprotein (P08183 whole entry): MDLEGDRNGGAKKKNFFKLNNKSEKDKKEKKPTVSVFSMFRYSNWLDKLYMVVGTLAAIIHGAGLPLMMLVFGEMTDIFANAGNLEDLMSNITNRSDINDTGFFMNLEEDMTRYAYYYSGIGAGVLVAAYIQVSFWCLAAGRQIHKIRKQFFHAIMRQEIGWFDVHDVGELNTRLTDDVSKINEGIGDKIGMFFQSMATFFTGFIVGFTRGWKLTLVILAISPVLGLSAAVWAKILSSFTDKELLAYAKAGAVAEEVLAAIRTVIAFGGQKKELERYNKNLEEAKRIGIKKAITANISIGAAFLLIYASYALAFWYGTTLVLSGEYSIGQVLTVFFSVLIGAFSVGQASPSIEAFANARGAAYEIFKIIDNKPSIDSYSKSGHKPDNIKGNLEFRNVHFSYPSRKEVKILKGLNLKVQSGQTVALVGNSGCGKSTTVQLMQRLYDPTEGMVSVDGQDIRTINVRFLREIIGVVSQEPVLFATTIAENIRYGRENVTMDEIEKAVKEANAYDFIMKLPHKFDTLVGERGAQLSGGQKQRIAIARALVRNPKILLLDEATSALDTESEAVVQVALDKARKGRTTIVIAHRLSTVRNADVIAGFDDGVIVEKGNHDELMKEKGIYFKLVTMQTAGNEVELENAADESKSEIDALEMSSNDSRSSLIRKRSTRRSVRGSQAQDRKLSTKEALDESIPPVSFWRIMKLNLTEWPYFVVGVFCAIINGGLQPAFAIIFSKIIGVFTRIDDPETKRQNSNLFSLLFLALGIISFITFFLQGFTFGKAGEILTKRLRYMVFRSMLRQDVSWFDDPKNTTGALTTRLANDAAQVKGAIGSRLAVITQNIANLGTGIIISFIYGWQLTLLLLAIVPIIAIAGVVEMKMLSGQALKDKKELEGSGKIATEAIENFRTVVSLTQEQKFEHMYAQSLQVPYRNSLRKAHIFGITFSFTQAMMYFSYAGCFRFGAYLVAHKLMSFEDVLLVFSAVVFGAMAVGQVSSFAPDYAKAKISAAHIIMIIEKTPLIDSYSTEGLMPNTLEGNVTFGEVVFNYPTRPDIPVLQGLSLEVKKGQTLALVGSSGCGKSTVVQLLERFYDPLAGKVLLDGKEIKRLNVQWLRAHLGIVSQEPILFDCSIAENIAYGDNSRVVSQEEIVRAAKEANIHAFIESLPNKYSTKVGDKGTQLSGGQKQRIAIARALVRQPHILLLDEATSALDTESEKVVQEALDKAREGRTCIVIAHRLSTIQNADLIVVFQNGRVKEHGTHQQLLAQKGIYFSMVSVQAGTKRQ
Procedure: as §2

[3] = Polycarbonate (1), Artursson et al 1996, 14C-mannitol

Compound: OC[C@@H](O)[C@@H](O)[C@H](O)[C@H](O)CO [^14C-Mannitol, ^14C-mannitol]
- Papp ([1]; BIOCOAT "3 day" system, 14C-mannitol): <4.0 cm.s^−1 × 10^6
- % Transported/hour [1, 3]: 0.05%
- Papp [1, 3]: 0.1-1.0 cm.s^−1 × 10^6
- % Transported/hour ([1]; Polycarbonate (3), Taub 1997, 14C-mannitol): 1.5%
- Papp at 60 min (in vitro): ~0.4 ×10⁻⁶ cm/s
- Papp (Caco-2 cell monolayer; Caco-2): 0.4 cm.s^−1 × 10^6
- % Transported/hour (Caco-2 cell monolayer; human, Caco-2, 1 h, pH 7.4): <0.5%
- Average Mannitol Transported (Caco-2 cell monolayer; human, Caco-2, 60 min, pH 7.4): 0.36-0.40%

Compound: Lucifer Yellow
- % Transported/hour ([1]; Polycarbonate (4), Hidalgo et al 1989, Lucifer Yellow): 0.11%
- % Transported/hour (Caco-2 cell monolayer; Caco-2): 0.13%
- Average Lucifer Yellow Transported (Caco-2 cell monolayer; Caco-2): 0.13%

Compound: OC[C@@H](O)[C@@H](O)[C@H](O)[C@H](O)CO [^3H-Mannitol]
- Papp [1]: 0.76 cm.s^−1 × 10^6

Compound: CN(CC(=O)O)[14C](=O)CN [^14C-Gly-sar]
- transport A-B versus B-A ([2]; 24 well PET inserts): increased transport in the A-B direction
- transport A-B versus B-A ([2]; collagen coated 6 well Biocoat filters): increased transport in the A-B direction

Compound: CC[C@]1(O)C[C@@H]2CN(CCc3c([nH]c4ccccc34)[C@@](C(=O)OC)(c3cc4c(cc3OC)N(C)[C@H]3[C@@](O)(C(=O)OC)[C@H](OC(C)=O)[C@]5(CC)C=CCN6CC[C@]43[C@@H]65)C2)C1 [^3H-vinblastine]
- transport B to A versus A to B (P-glycoprotein): significantly greater B to A transport
